Laboratory results published in patent US9113629B2, “4-amino-6-(4-substituted-phenyl)-picolinates and 6-amino-2-(4-substituted-phenyl)-pyrimidine-4-carboxylates and their use as herbicides” (DOW AGROSCIENCES LLC, priority 2013, dated 2015).
Where two headings read alike, the source gives them in different places.

Assays:
[1] = system: Key Broadleaf Weed and Crop Species; assay: Post-emergent Test II herbicidal activity (Table 5); format: in vivo; details: post-emergence, 336 h, post-emergent, 14 days after application; for pest or weed control at 66 g/ha: 66 g ai/ha; for pest or weed control at 132 g/ha: 132 g ai/ha
Method in brief: (§1)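 Plants grown in Metro-Mix 360 (pH 6.0–6.8) in a greenhouse (~15 h photoperiod, 23–29 °C day) to first or second true leaf stage, then sprayed with compound in acetone/DMSO/aqueous crop-oil-surfactant carrier at 187 L/ha by track sprayer. Injury visually scored 0–100% versus untreated plants after 14 d.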

[2] = system: Key Grass and Sedge Weeds as well as Grass Crops; assay: Post-emergent Test II herbicidal activity (Table 6); format: in vivo; details: post-emergence, 336 h; for pest or weed control at 66 g/ha: application rate 66 g ai/ha; for pest or weed control at 132 g/ha: application rate 132 g ai/ha
Method in brief: as §1

[3] = ABUTH: velvetleaf (Abutilon theophrasti), read-out: Visual Growth Reduction (%) 14 Days After Application ABUTH
[4] = AMARE: redroot pigweed (Amaranthus retroflexus), read-out: Visual Growth Reduction (%) 14 Days After Application AMARE
[5] = BRSNN: oilseed-rape, canola (Brassica napus), read-out: Visual Growth Reduction (%) 14 Days After Application BRSNN
[6] = CHEAL: lambsquarters (Chenopodium album), read-out: Visual Growth Reduction (%) 14 Days After Application CHEAL
[7] = EPHHL: wild poinsettia (Euphorbia heterophylla), read-out: Visual Growth Reduction (%) 14 Days After Application EPHHL
[8] = HELAN: sunflower (Helianthus annuus), read-out: Visual Growth Reduction (%) 14 Days After Application HELAN
[9] = VIOTR: wild pansy (Viola tricolor), read-out: Visual Growth Reduction (%) 14 Days After Application VIOTR
[10] = Triticum aestivum, TRZSS (wheat), read-out: Visual Growth Reduction (%) 14 Days After Application, TRZSS
[11] = CYPES: yellow nutsedge (Cyperus esculentus), read-out: Visual Growth Reduction (%) 14 Days After Application, CYPES
[12] = DIGSA: crabgrass (Digitaria sanguinalis), read-out: Visual Growth Reduction (%) 14 Days After Application, DIGSA
[13] = ECHCG: barnyardgrass (Echinochloa crus-galli), read-out: Visual Growth Reduction (%) 14 Days After Application, ECHCG
[14] = ORYSA: rice (Oryza sativa), read-out: Visual Growth Reduction (%) 14 Days After Application, ORYSA
[15] = SETFA: giant foxtail (Setaria faberi), read-out: Visual Growth Reduction (%) 14 Days After Application, SETFA
[16] = SORVU: grain sorghum (Sorghum vulgare), read-out: Visual Growth Reduction (%) 14 Days After Application, SORVU
[17] = ZEAMX: maize, corn (Zea mays), read-out: Visual Growth Reduction (%) 14 Days After Application, ZEAMX

SMILES: COC(=O)c1nc(-c2ccc(I)c(F)c2)c(C)c(N)c1Cl [Compound 79, Methyl 4-amino-3-chloro-6-(3-fluoro-4-iodophenyl)-5-methylpicolinate]
- melting point: 121 to 124 °C
- pest or weed control at 66 g/ha [1, 3]: 85 to 94%
- pest or weed control at 132 g/ha [1, 3]: 95 to 100%
- pest or weed control at 66 g/ha [1, 4]: 60 to 74%
- pest or weed control at 132 g/ha [1, 4]: 75 to 84%
- pest or weed control at 66 g/ha [1, 5]: 85 to 94%
- pest or weed control at 132 g/ha [1, 5]: 85 to 94%
- pest or weed control at 66 g/ha [1, 6]: 95 to 100%
- pest or weed control at 132 g/ha [1, 6]: 95 to 100%
- pest or weed control at 66 g/ha [1, 7]: 0 to 29%
- pest or weed control at 132 g/ha [1, 7]: 0 to 29%
- pest or weed control at 66 g/ha [1, 8]: 95 to 100%
- pest or weed control at 132 g/ha [1, 8]: 95 to 100%
- pest or weed control at 66 g/ha [1, 9]: 0 to 29%
- pest or weed control at 132 g/ha [1, 9]: 0 to 29%
- pest or weed control at 66 g/ha [2, 10]: 0 to 29%
- pest or weed control at 132 g/ha [2, 10]: 30 to 44%
- pest or weed control at 66 g/ha [2, 11]: 95 to 100%
- pest or weed control at 132 g/ha [2, 11]: 95 to 100%
- pest or weed control at 66 g/ha [2, 12]: 60 to 74%
- pest or weed control at 132 g/ha [2, 12]: 60 to 74%
- pest or weed control at 66 g/ha [2, 13]: 60 to 74%
- pest or weed control at 132 g/ha [2, 13]: 60 to 74%
- pest or weed control at 66 g/ha [2, 14]: 0 to 29%
- pest or weed control at 132 g/ha [2, 14]: 0 to 29%
- pest or weed control at 66 g/ha [2, 15]: 75 to 84%
- pest or weed control at 132 g/ha [2, 15]: 75 to 84%
- pest or weed control at 66 g/ha [2, 16]: 60 to 74%
- pest or weed control at 132 g/ha [2, 16]: 75 to 84%
- pest or weed control at 66 g/ha [2, 17]: 60 to 74%
- pest or weed control at 132 g/ha [2, 17]: 60 to 74%
